One compound from US20110118274A1, “PROTEASOME INHIBITORS AND THEIR USE IN TREATING PATHOGEN INFECTION AND CANCER” (CORNELL RESEARCH FOUNDATION, INC., priority 2007, published 2011) can be followed below.

In the assay the test system is Mtb PrcAB-OG. Nature of the assay: biochemical. It counts as biochemical, Mycobacterium tuberculosis.

In the case of `CSc1sc(C)cc1-c1nsc(=O)o1` [GL5], the Selectivity came to 63.8.
